Data set [1] is described as follows: Single oral dose pharmacokinetics of BKIs in mice (plasma). Format: in vivo. The settings on record: mouse plasma. As for the experimental part:
Mouse oral PK studies were performed as previously described. Briefly, three female BALB/c mice (10 -12 weeks old) were used in each group. With the exception of 1556, each group of mice received an individual BKI at a dose of 10 mg/kg body weight by oral gavage in 200 μL 70% Tween 80/30% ethanol diluted in saline. The only difference for mice administered 1556 was that the group received a dose of 25 mg/kg. Blood samples were taken by tail bleeding into heparinized tubes at designated time points and centrifuged to obtain plasma. The samples were frozen at -20°C. The plasma samples were prepared by adding acetonitrile + 0.1% formic acid with an internal standard. Calibration curves were generated by spiking standards of each BKI into mouse serum and preparing the standards along with test samples. The PK calculations of Cmax and AUC were performed using Phoenix WinNonlin software (Certara, Princeton, NJ).

The nature of data set [2]: Plasma protein binding. The class given is in vitro ADME. The source says: (§1) Information regarding the C. parvum oocysts, generation of BKIs, CpCDPK1 enzyme inhibition, C. parvum growth inhibition by BKIs, plasma protein binding, and neonatal mouse model of C. parvum infection has been described in detail elsewhere. Information on BKI solubility and permeability, Gastroplus modeling, the interferon (IFN) γ knockout (KO) mouse model, and measurement of BKI levels in the GI tract of mice is described in the Supplementary Material. All animal experiments were approved by the Institutional Animal Care and Use Committees at the participating universities (University of Washington, University of Georgia, and University of Arizona).

The subject of data set [3] is Cryptosporidium parvum. The experiment in a line: C. parvum growth inhibition by BKIs in vitro. Format: cell-based. To be noted: read-out: BKI EC50 for Inhibition of C. parvum Proliferation.
From the text: as §1

Data set [4] concerns Cryptosporidium parvum. The experiment in a line: Neonatal mouse model of C. parvum infection. Format: in vivo. Details: concentration or dose not given beside the values.
From the text: as §1

Data set [5] can be described thus: BKI aqueous solubility at pH 2 and 6.5. The class given is physicochemical. To be noted: second of two values; measured at pH 2 and 6.5. As for the experimental part: Briefly, 1 μL of 20 mM dimethyl sulfoxide (DMSO) stock was added to 199 μL of buffer. Samples were vortexed and allowed to incubate at 25 °C overnight. The next day, each sample was centrifuged at 13800 rpm for 40 minutes at 25 °C. The supernatant was collected and 100 μL of the supernatant was added to 100 μL acetonitrile. Solutions were analyzed by HPLC/UV and were quantified based on a five-point calibration curve for each analyte.

In data set [6] the test system is Cryptosporidium parvum. The experiment in a line: IFN-γ KO adult mouse model of C. parvum infection (Nluc oocyst shedding). The class given is in vivo. The settings on record: IFN-γ KO mice, 6 mg/kg once daily oral for 5 days. From the text:
The ability to predict in vivo efficacy with BKI ascending colon concentrations was further evaluated in an adult model of C. parvum infection. Female IFN-γ KO mice were infected with transgenic C. parvum strain UGA1 expressing nanoluciferase (Nluc), and the infection was allowed to proceed for 3–5 days. […] To account for daily growth of parasites over the course of the study, the observed RLUs in the vehicle-treated mice were used to simulate the growth of the parasite over the course of the experiment (Figure 4A). On each day of the study, the simulated parasite level was based on both the growth of the parasite and the predicted inhibition by BKI [[22–24]].
The efficacy of BKIs in an adult mouse model of C. parvum infection was tested as previously described. Briefly, all female IFN-γ KO mice (B6.129S7-Ifngtm1Ts/J, Jackson Laboratories), were infected by oral gavage (PO) with 10,000 Nluc expressing C. parvum oocysts in 100 μL DPBS for studies with 1534. For all other studies, mice were infected PO with 1,000 Nlucexpressing C. parvum oocysts. Vehicle control groups and BKI treated groups each contained at least three mice. […] The stool samples were checked for luminescence on the day of collection and RLU readings were standardized to fecal sample weights. […]

For data set [7], the system named is Cryptosporidium. On the set-up: method as in PMID 12423984. The settings on record: cited from earlier work.

The structures appear in SMILES notation. Values after ≈ are worked out from the molar mass of the structure shown.

Take `CC(C)Cn1nc(-c2ccc3cc(OC4CC4)ccc3c2)c2c(N)ncnc21` [BKI 1534]: in data set [1] (single oral dose 10 mg/kg), the AUC was found to be 58 µmol·min/L and the Cmax stood at 200 nM. Moreover, the “Plasma Protein Binding” value in data set [2] stood at 99%. For the same compound, the EC50 in data set [3] turned out to be 2200 nM. Besides, in data set [4], the “Reduction in Neonatal Mouse C. parvum Infection” value (“Reduction” below) is given as 61%. Further, the “Solubility (second value)” value in data set [5] was found to be 2 µM (≈ 0.747 µg/mL). Moreover, in data set [6], the “in vivo efficacy (oocyst shedding, RLU)” value is “lack of BKI efficacy”.
As to `CCOc1ccc2cc(-c3nn(CC4CCN(C)CC4)c4ncnc(N)c34)ccc2c1` [BKI 1294], in data set [1] (single oral dose 10 mg/kg), the AUC amounted to 430 µmol·min/L and the highest level (Cmax) was 800 nM. Further, the “Plasma Protein Binding” value in data set [2] was 84%. Besides, the EC50 in data set [3] is 2700 nM. The “Reduction” value in data set [4] is on record as 56%.
In data set [1] (single oral dose 10 mg/kg), `CC(C)(O)Cn1cc(-c2ccc3nc(OC4CC4)ccc3c2)c2c(N)ncnc21` [BKI 1649] had an AUC of 6416 µmol·min/L and a Cmax of 4900 nM. In addition, in data set [2], the “Plasma Protein Binding” value is 90%. In data set [3], the EC50 was determined as 2300 nM. Also, the “Reduction” value in data set [4] is 56%. In addition, in data set [5], the “Solubility (second value)” value is given as 83 µM (≈ 32.3 µg/mL).
As for `CC(C)Cn1nc(-c2ccc3nc(OC4CC4)ccc3c2)c2c(N)ncnc21` [BKI 1556], in data set [1] (single oral dose 25 mg/kg), the AUC is 2082 µmol·min/L and the Cmax turned out to be 7000 nM. In addition, the “Plasma Protein Binding” value in data set [2] stood at 86%. The EC50 in data set [3] is 3200 nM. For the same compound, the “Reduction” value in data set [4] is reported as 61%. For the same compound, the “Solubility (second value)” value in data set [5] is recorded as 7 µM (≈ 2.62 µg/mL).
In data set [1] (single oral dose 10 mg/kg), `CCOc1ccc2cc(-c3nn(CC4CCNCC4)c4ncnc(N)c34)ccc2n1` [BKI 1318] came in with an AUC of 2208 µmol·min/L and a Cmax of 6500 nM. The “Plasma Protein Binding” value in data set [2] was 55%. The EC50 in data set [3] stood at 3200 nM. Also, the “Reduction” value in data set [4] is reported as 65%.
`CCOc1ccc2cc(-c3nn(CC4CCN(C)CC4)c4ncnc(N)c34)ccc2n1` [BKI 1369] gave a Cmax in data set [1] (single oral dose 10 mg/kg) of 300 nM. Moreover, the “Plasma Protein Binding” value in data set [2] was determined as 37%. The EC50 in data set [3] came out at 2300 nM. Besides, in data set [4], the “Reduction” value is on record as 70%.
Turning to `Nc1ncnc2c1c(-c1ccc3nc(OC4CC4)ccc3c1)nn2CC1CCOCC1` [BKI 1557], in data set [1] (single oral dose 10 mg/kg), the AUC was 67 µmol·min/L and the Cmax turned out to be 900 nM. In addition, the “Plasma Protein Binding” value in data set [2] is 84%. For the same compound, in data set [3], the EC50 is 5500 nM. The “Reduction” value in data set [4] turned out to be 33%. Further, the “Solubility (second value)” value in data set [5] is recorded as 17 µM (≈ 7.08 µg/mL).
Regarding `CC(=O)Oc1ccccc1C(=O)Nc1ncc([N+](=O)[O-])s1` [nitazoxanide], the efficacy result in data set [7] (human immunodeficiency virus–infected individuals) is recorded as “no efficacy”. In addition, the response rate in data set [7] (malnourished children with cryptosporidiosis) was 30%.

(Values after paper PMC5853285, “Necessity of Bumped Kinase Inhibitor Gastrointestinal Exposure in Treating Cryptosporidium Infection” (The Journal of Infectious Diseases, 2017).)
